Assay [1] has as its system left atrial muscle. Put plainly: Test Method 1: enhancement of contracting force of left atrial muscle extirpated from a guinea pig (electrically stimulated at 1 Hz). The format is cell-based. The conditions noted are these: Cavia porcellus, Krebs-Henseleit solution 32° C.; for EC20: read-out: EC20 (molar concentration for enhancing the left atrial muscle contracting force to the level of 20%); for EC50: read-out: EC50 (molar concentration for enhancing the left atrial muscle contracting force to the level of 50%); for EC100: read-out: EC100 (molar concentration for enhancing the left atrial muscle contracting force to the level of 100%).

Assay [2] deals with right atrial muscle. Put plainly: Test Method 1: enhancing rate of the pulsation of the right atrial muscle extirpated from a guinea pig. The assay is classed as cell-based. The conditions noted are these: for enhancing rate of the pulsation of the right atrial muscle (in parentheses under EC20) / enhancing rate of the pulsation of the right atrial muscle (in parentheses under EC100) / enhancing rate of the pulsation of the right atrial muscle (in parentheses under EC50): minus values: pulsation is decreased. On the procedure: The drug according to the present invention was evaluated with reference to the physiological activities by means of a method using an atrial muscle extirpated from a guinea pig.
Male guinea pigs having a body weight of 300-500 g were made swooned by striking his head and were bleeded to death. The heart was extirpated and the right and left atrial muscles were cut off. The tops of each atrial muscle were fixed with cerrefines. The muscle was suspended into an organ-bath in which a Krebs-Henseleit solution (at 32° C.) was filled, and a 95% O2 -5% CO2 gas was flown through the bath. The left atrial muscle was stimulated electrically at a frequency of 1 Hz to stabilize the contracting force of the left atrial muscle. Then, the compounds according to the present invention represented by the general formulae were added to the organ-bath. As for the right atrial muscle, after the pulsation was stabilized, the compounds according to the present invention were added in the organ-bath in the same manner as described above.
The compounds according to the present invention represented by the aforementioned general formulae enhanced the left atrial muscle contracting force dependent on their concentrations. The drug concentrations for enhancing the left atrial muscle contracting force to the levels of 20%, 50% and 100%, respectively are listed in Table 2. EC20, EC50 and EC100 indicate the molar concentration for enhancing the left atrial muscle contracting force to the levels of 20%, 50% and 100%, respectively. The enhancing rates of the pulsation of the right atrial muscle are also listed within parentheses. The minus values in parentheses indicate that the pulsation of the right atrial muscle is decreased.
As a control drug, theophylline ([…].

In assay [3] the test system is heart muscle. Put plainly: Test Method 2: effect on heart muscle contracting force in an anesthetized dog (LV-dP/dtmax). The conditions noted are these: anesthetized Beagle dogs, 1 mg/kg through a cannula inserted into vein; increasing rate, value at initiation set as 100%. The assay is classed as in vivo. On the procedure:
The compounds according to the present invention was evaluated with reference to the effect on heart muscle contracting force by means of a method using an anesthetized dog.
Beagle dogs having a body weight of 8-11 kg were used for the experiment. They were anesthetized by intraperitoneal administration of a sodium salt of pentobarbital (35 mg/kg) and, if necessary, of additional small amount of the sodium salt of pentobarbital. Anesthesia was maintained by administering the sodium salt of pentobarbital in a dose of 5 mg/kg/hour through a cannula inserted within a vein. Breathing was performed through a cannula inserted within a trachea with a respirator. The maximum accelerations of contracting the […] (LV-dp/dtmax) were measured with a pressure transducer inserted into the left ventricle. Compounds tested was administered in a dose of 1 mg/kg through a cannula inserted into the other vein. The parameters were expressed as the increasing rate (Δ%) after dosing of the drug with the value at the initiation when the drug was administered being set as 100%.

The structures appear in SMILES notation.

`COc1cc(C)c2[nH]ccc(=O)c2c1` [Compound 20, 6-methoxy-8-methyl-4(1H)-quinolone]: in assay [1], the EC20 is 12.4 µM, the EC50 was 58.9 µM and the EC100 stood at 299 µM. Moreover, in assay [2], the “enhancing rate of the pulsation of the right atrial muscle (in parentheses under EC20)” value (“enhancing rate … (in parentheses under EC20)” for short) worked out at 0.2%, the “enhancing rate of the pulsation of the right atrial muscle (in parentheses under EC100)” value (shortened to “enhancing rate … (in parentheses under EC100)”) came to 5.6% and the “enhancing rate of the pulsation of the right atrial muscle (in parentheses under EC50)” value (“enhancing rate … (in parentheses under EC50)” for short) is 1.8%. In assay [3], the “ΔLV-dP/dtmax (%)” value was 41.7%.

For `COc1cc2[nH]c(C3CC3)cc(=O)c2cc1OC` [Compound 95, 2-cyclopropyl-6,7-dimethoxy-4(1H)-quinolone], in assay [1], the EC20 is 1.78 µM, the EC50 turned out to be 18.2 µM and the EC100 came to 94.4 µM. In assay [2], the “enhancing rate … (in parentheses under EC20)” value came out at 2.8% and the “enhancing rate … (in parentheses under EC50)” value worked out at 16.3%. In addition, the “ΔLV-dP/dtmax (%)” value in assay [3] is 46.9%.

`CCOC(=O)c1cn(CC)c2ccc(CC)cc2c1=O` [Compound 85, 1,6-diethyl-3-ethoxycarbonyl-4(1H)-quinolone]: in assay [1], the EC20 was determined as 1.58 µM and the EC50 turned out to be 9.77 µM. Further, in assay [2], the “enhancing rate … (in parentheses under EC20)” value is given as -1.2% and the “enhancing rate … (in parentheses under EC50)” value is on record as -0.8%. Also, the “ΔLV-dP/dtmax (%)” value in assay [3] was found to be 25.0%.

`COc1cc2c(=O)cc[nH]c2cc1OC(C)C` [Compound 51, 7-i-propoxy-6-methoxy-4(1H)-quinolone]: in assay [1], the EC20 was determined as 20 µM, the EC50 amounted to 70.8 µM and the EC100 is 1000 µM. In addition, in assay [2], the “enhancing rate … (in parentheses under EC20)” value is on record as 6.2%, the “enhancing rate … (in parentheses under EC100)” value is listed as 16.5% and the “enhancing rate … (in parentheses under EC50)” value was found to be 16.8%. For the same molecule, the “ΔLV-dP/dtmax (%)” value in assay [3] came to 41.2%.

In the case of `Cn1c(=O)c2[nH]cnc2n(C)c1=O` [Theophylline, theophylline, reference compound], in assay [1], the EC20 was 72.4 µM and the EC50 was found to be 302 µM. Also, in assay [2], the “enhancing rate … (in parentheses under EC20)” value worked out at 7.3% and the “enhancing rate … (in parentheses under EC50)” value is on record as 20.0%. Besides, the “effect on heart rate (in words)” value in assay [2] (from the results of Table 2) is reported as “increased significantly”. In addition, the “ΔLV-dP/dtmax (%)” value in assay [3] was 18.8%.

Turning to `CCOc1cc2[nH]c(C3CC3)cc(=O)c2cc1OC` [Compound 98, 2-cyclopropyl-7-ethoxy-6-methoxy-4(1H)-quinolone], in assay [1], the EC20 came to 5.96 µM and the EC50 is 36.7 µM. Also, the “ΔLV-dP/dtmax (%)” value in assay [3] came to 57.1%.

Consider `CCOc1cc2c(cc1OC)c(=O)cc(-c1ccco1)n2CC` [Compound 101, 7-ethoxy-1-ethyl-2-(2-furyl)-6-methoxy-4(1H)-quinolone], for which, in assay [1], the EC20 stood at 1.68 µM, the EC50 is 19.5 µM and the EC100 was determined as 89.1 µM. In assay [2], the “enhancing rate … (in parentheses under EC20)” value is recorded as -1.0%, the “enhancing rate … (in parentheses under EC100)” value is given as 0.0% and the “enhancing rate … (in parentheses under EC50)” value was -2.8%.

For the molecule `CCOC(=O)c1c[nH]c2c(OCOC)ccc(OC)c2c1=O` [Compound 5, 3-ethoxycarbonyl-5-methoxy-8-methoxymethoxy-4(1H)-quinolone], the EC20 in assay [1] stood at 741 µM. Also, the “enhancing rate … (in parentheses under EC20)” value in assay [2] is on record as 0.2%.

As to `CCOc1cc2[nH]ccc(=O)c2cc1OC` [Compound 62, 7-ethoxy-6-methoxy-4(1H)-quinolone], in assay [1], the EC20 is 4.52 µM, the EC50 came out at 30 µM and the EC100 is 75 µM. Further, the “ΔLV-dP/dtmax (%)” value in assay [3] is given as 60.0%.

As for `CCOC(=O)c1cn(CC)c2ccc(C)cc2c1=O` [Compound 33, 3-ethoxycarbonyl-1-ethyl-6-methyl-4(1H)-quinolone], in assay [1], the EC20 stood at 30 µM, the EC50 was found to be 76.7 µM and the EC100 is 513 µM. In assay [2], the “enhancing rate … (in parentheses under EC20)” value was found to be 1.5%, the “enhancing rate … (in parentheses under EC100)” value is -7.1% and the “enhancing rate … (in parentheses under EC50)” value is on record as 1.7%.

`CCN(CC)c1cc(C)c2[nH]ccc(=O)c2c1` [Compound 9, 6-diethylamino-8-methyl-4(1H)-quinolone]: in assay [1], the EC20 worked out at 40.7 µM, the EC50 came out at 87.1 µM and the EC100 turned out to be 299 µM. Moreover, in assay [2], the “enhancing rate … (in parentheses under EC20)” value is 8.2%, the “enhancing rate … (in parentheses under EC100)” value is on record as 18.0% and the “enhancing rate … (in parentheses under EC50)” value is given as 15.3%.

The values are drawn from patent US5081121A, “4(1H)-quinolone derivatives” (priority 1988, dated 1992).
